Experimental data published in patent US4939124A, “Treatment and diagnosis of dementia” (Laboratorios Serono S.A., priority 1988, dated 1990).

Tested on: Male Wistar rats
Test: Locomotor activity in open field paradigm (OUCEM-86), i.c.v. injection
Type: in vivo
Source text: To clarify whether SS and GRF display at the central level the same antagonistic effect that they have at the pituitary level, the effects of these neuropeptides on several behavioral parameters have been studied using the OUCEM-86^TM (Osaka University Computerized Electronic Maze). The system is integrated by the following components: a Programmable Electronic Platform (PEP) (620×620 mm) equipped with 48 photo beam sensors (OPX-T30); a Programming Panel (PP) (Model BECM-0064) for paradigm stimulation; a Shock Generator Scrambler (SGS) (Model BSG-1065) to apply continuous or discontinuous electric current to the PEP; a Control Station (CS) (BEC 16-Bio Computer Control Station BCS-1105; Bio Medica, Ltd., Osaka) which processes inputs/outputs as an interface device to automatically computerize behavioral parameters; and a Computer System (NEC PC-9801 VM2) with 1 megabyte Random Access Memory (RAM) for data processing and experimental setting.
Male Wistar rats (175-200 g) (N =5-8 rats/group) received intracerebroventricular (i.c.v.) injections of GRF1-44 and SS-14 over a range of 0.1 to 10 mcg. Then the rats were studied in the OUCEM under two different paradigms (e.g., open field and maze paradigms).
The animals were placed in the PEP for 30-minute periods and locomotor activity (LA) was automatically recorded in an open field paradigm. Total LA is represented as total inputs (I/O) including movements in four-footed position (4F) and in two-footed position (2F), grooming, rearing and jumping activity, while linear (horizontal) movements (4F) are represented as pulses per minute (pm) or cm^2 /min

growth hormone releasing factor [GRF]
locomotor activity (LA), open field (1 mcg i.c.v. (SS-14 / GRF1-44), 30-minute period, control 31.16±6.90 pm): 47.60±5.35 pm | locomotor activity (LA), open field (GRF1-44 1 mcg i.c.v., control 1122±248 cm^2 /min): 1713.6±69.5 cm^2 /min | qualitative behavioral change, open field (GRF 1 mcg i.c.v.): hyperkinetic syndrome characterized by compulsive, uncontrolled movements
